Several values for one entry are separate records, joined by “and”; a condition that tells them apart may be missing. Identical values can stand only once.
Columns and labels:
[1] = target: T1, CYP1A2 (Homo sapiens, UniProt P05177); assay: Prediction of in vivo HDI from in vitro results, CYP1A2; conditions: for Likelihood of causing HDI: CYP1A2, IC50 compared with estimated GIT and plasma concentrations; for Plasma concentration: Table 3, CYP1A2 section
T1 construct: purchased BD Gentest (Woburn, MA, USA); host or cells: baculovirus expression system
T1 sequence (P05177 1-516): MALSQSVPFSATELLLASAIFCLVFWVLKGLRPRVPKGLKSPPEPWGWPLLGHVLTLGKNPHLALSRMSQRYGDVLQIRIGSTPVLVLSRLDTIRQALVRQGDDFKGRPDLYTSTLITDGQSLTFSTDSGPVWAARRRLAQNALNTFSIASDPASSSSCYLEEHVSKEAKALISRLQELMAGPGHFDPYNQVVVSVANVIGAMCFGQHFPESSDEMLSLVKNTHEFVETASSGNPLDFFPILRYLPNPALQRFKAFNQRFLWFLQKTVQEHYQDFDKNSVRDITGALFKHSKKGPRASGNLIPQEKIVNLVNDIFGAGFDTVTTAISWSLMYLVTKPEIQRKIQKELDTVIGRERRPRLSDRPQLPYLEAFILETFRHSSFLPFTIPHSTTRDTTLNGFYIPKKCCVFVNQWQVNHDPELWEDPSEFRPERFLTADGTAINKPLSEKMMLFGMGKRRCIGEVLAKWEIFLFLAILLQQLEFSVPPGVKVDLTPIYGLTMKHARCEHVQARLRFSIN
Procedure: (§1) All assumptions to predict the HDI potential of KF methanolic extract and its constituents were according to previously published report ([Awortwe et al., 2014]). The % yield was calculated from the amounts extracted from the KF roots ([Ali and Khan, 2011]). The human GIT volume is 250 mL and plasma volume is about 3 L. The commonly used maximum dose of KF extract capsules is 560 mg per day ([Abdul Kadir et al., 2012]) and accordingly we estimated the concentration per dose, GIT, and plasma concentrations of extract and its constituents. We then compared the in vitro IC50 values obtained from recombinant CYPs with estimated GIT and plasma concentrations. If the IC50 values were lower than the GIT or plasma concentration, then the test compound or extract is likely to cause HDI in vivo.

[2] = target: T2, CYP3A4 (Homo sapiens, UniProt P08684); assay: Time dependent inhibition (pre-incubation assay) of recombinant CYP3A4; type: in vitro ADME
T2 construct: purchased BD Gentest (Woburn, MA, USA); host or cells: baculovirus expression system
T2 sequence (P08684 whole entry): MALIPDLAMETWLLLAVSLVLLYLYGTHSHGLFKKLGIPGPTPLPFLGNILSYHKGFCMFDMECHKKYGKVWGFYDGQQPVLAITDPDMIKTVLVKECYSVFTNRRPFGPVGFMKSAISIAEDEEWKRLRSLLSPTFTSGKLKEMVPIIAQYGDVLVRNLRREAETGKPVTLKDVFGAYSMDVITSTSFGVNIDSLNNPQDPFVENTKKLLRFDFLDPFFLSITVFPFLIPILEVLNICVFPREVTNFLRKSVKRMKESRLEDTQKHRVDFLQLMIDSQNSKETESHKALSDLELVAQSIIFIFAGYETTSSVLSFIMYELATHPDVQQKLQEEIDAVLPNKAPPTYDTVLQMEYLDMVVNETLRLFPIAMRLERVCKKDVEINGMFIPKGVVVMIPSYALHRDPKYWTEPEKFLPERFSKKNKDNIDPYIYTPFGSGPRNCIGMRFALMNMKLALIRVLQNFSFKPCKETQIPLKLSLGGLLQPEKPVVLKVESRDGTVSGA
Procedure: The reaction mixture (180–190 μL), consisting of test sample, recombinant enzyme, control protein (0.05 mg of protein/mL), cofactor mix, G-6-PDH, and 50 mM potassium phosphate buffer (pH 7.4) was pre-incubated for 30 min followed by addition of respective fluorescent substrates (10–20 μL) and further incubation for 15 (CYP1A2), 30 (CYP3A4), or 45 (CYP 2C9 and 2C19) min. The reaction was terminated by addition of 75 μL of ice cold acetonitrile/0.5 M Tris base (80:20) and fluorescence was measured as above. IC50 values (pre-incubation assay) were obtained as above. The shift in the concentration-response curve was calculated as the ratio of IC50 (co-incubation)/IC50 (pre-incubation).

[3] = target: T3, CYP2C19 (Homo sapiens, UniProt P33261); assay: Prediction of in vivo HDI from in vitro results, CYP2C19; design: key to Likelihood of causing HDI: If the IC50 values were lower than the GIT or plasma concentration, then the test compound or extract is likely to cause HDI in vivo; conditions: for Likelihood of causing HDI: CYP2C19, IC50 compared with estimated GIT and plasma concentrations; for Plasma concentration: Table 3, CYP2C19 section
T3 construct: purchased BD Gentest (Woburn, MA, USA); host or cells: baculovirus expression system
T3 sequence (P33261 whole entry): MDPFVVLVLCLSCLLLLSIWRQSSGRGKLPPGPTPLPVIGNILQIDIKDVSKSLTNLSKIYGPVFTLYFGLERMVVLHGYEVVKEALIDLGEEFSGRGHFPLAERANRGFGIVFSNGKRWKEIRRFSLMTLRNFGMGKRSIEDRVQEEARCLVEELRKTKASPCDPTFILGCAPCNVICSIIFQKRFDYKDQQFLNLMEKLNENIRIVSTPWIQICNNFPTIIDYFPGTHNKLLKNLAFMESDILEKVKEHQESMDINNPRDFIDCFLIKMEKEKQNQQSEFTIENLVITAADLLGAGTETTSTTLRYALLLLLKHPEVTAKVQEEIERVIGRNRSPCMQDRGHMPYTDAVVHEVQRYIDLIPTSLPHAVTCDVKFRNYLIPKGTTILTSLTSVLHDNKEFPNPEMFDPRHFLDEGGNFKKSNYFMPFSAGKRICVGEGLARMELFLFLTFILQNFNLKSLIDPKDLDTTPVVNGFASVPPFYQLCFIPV
Procedure: as §1

[4] = target: T1, CYP1A2; assay: Reversible inhibition of recombinant CYP1A2; type: in vitro ADME
Procedure: (§2) The assay for reversible inhibition was conducted in a total volume of 200 μL in 96-well microplates. The assay conditions, enzyme and substrate concentrations were similar as reported earlier ([Crespi et al., 1997]; [Manda et al., 2013]). Test samples or positive controls were serially diluted in a solution (100 μL) of cofactors mix, control protein (0.05 mg of protein/mL), and G-6-PDH to achieve six concentrations (100-0.4 μM or μg/mL). Initial readings were taken to record any inherent fluorescence and the plates were incubated at 37°C for 10 min. Reaction was initiated by the addition of enzyme substrate mixture (100 μL) followed by incubation for 15, 30, or 45 min. The reaction was terminated by the addition of 75 μL of ice cold acetonitrile/0.5 M Tris base (80:20). Fluorescence was measured on Spectramax M5 plate reader (Molecular Devices, Sunnyvale, CA, USA) at specified excitation and emission wavelengths for each substrate. IC50 values (co-incubation assay) were obtained from concentration-response curves generated by plotting concentration versus % inhibition.

[5] = target: T2, CYP3A4; assay: Reversible inhibition (co-incubation assay) of recombinant CYP3A4, fluorescent substrate; type: in vitro ADME
Procedure: as §2, with “The assay conditions, enzyme and substrate concentrations were similar as reported earlier ([Crespi et al., 1997]; [Manda et al., 2013]).” left out

[6] = target: T3, CYP2C19; assay: Time dependent inhibition (pre-incubation assay) of recombinant CYP2C19; type: in vitro ADME; conditions: recombinant CYP2C19, 30 min pre-incubation
Procedure: (§3) Time dependent inhibition (TDI) of CYPs was measured as described earlier by [Sekiguchi et al. (2009)]. The reaction mixture (180–190 μL), consisting of test sample, recombinant enzyme, control protein (0.05 mg of protein/mL), cofactor mix, G-6-PDH, and 50 mM potassium phosphate buffer (pH 7.4) was pre-incubated for 30 min followed by addition of respective fluorescent substrates (10–20 μL) and further incubation for 15 (CYP1A2), 30 (CYP3A4), or 45 (CYP 2C9 and 2C19) min. The reaction was terminated by addition of 75 μL of ice cold acetonitrile/0.5 M Tris base (80:20) and fluorescence was measured as above. IC50 values (pre-incubation assay) were obtained as above. The shift in the concentration-response curve was calculated as the ratio of IC50 (co-incubation)/IC50 (pre-incubation).

[7] = target: T4, CYP2D6 (Homo sapiens, UniProt P10635); assay: Prediction of in vivo HDI from in vitro results, CYP2D6; conditions: for Likelihood of causing HDI: CYP2D6, IC50 compared with estimated GIT and plasma concentrations; for Plasma concentration: Table 3, CYP2D6 section
T4 construct: purchased BD Gentest (Woburn, MA, USA); host or cells: baculovirus expression system
T4 sequence (P10635 whole entry): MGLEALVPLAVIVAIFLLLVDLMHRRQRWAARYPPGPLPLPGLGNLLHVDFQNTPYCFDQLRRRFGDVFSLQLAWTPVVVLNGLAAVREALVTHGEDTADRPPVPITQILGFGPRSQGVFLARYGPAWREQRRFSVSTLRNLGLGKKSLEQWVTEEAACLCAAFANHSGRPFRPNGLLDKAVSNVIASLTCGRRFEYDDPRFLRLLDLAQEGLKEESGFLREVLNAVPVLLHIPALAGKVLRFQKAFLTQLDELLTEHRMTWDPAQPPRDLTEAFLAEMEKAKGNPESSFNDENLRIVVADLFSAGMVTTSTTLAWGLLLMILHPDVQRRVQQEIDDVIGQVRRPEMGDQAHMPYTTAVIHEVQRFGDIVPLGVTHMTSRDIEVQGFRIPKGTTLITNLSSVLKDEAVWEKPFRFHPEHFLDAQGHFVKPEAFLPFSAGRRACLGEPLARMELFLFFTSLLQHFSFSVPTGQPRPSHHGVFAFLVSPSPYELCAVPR
Procedure: as §1

[8] = target: T5, CYP2C9 (Homo sapiens, UniProt P11712); assay: Time dependent inhibition (pre-incubation assay) of recombinant CYP2C9; type: in vitro ADME; conditions: recombinant CYP2C9, 30 min pre-incubation
T5 construct: purchased BD Gentest (Woburn, MA, USA); host or cells: baculovirus expression system
T5 sequence (P11712 whole entry): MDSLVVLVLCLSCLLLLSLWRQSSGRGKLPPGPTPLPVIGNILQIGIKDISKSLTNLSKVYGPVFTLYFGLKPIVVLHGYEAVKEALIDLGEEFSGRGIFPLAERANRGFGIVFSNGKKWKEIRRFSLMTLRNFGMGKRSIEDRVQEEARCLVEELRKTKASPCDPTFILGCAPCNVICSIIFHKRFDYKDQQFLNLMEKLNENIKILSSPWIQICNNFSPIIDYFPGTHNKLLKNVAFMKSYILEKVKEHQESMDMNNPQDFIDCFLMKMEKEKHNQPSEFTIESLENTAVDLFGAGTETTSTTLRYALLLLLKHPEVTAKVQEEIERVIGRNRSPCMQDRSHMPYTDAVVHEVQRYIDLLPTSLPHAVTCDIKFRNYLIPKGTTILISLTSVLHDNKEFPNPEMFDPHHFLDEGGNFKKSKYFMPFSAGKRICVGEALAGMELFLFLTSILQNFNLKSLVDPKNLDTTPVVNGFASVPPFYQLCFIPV
Procedure: as §3

Likelihood of causing HDI [1] | Plasma concentration [1] [ng/mL] | IC50 [2] [µM] | Likelihood of causing HDI [3] | Plasma concentration [3] [ng/mL] | IC50 [4] [µM] | IC50 [5] | IC50 [6] [µM] | Likelihood of causing HDI [7] | Plasma concentration [7] [ng/mL] | IC50 [8] [µM] | Compound
Remote | 774 | 0.3 ± 0.06 | likely | 13220 | 91.1 | 4.1 µM and 4.4 µM | 3.2 ± 0.2 | Remote | 1460 | 8 ± 1.4 | CCCC/C=C\CCCCCCCCCc1cc(O)cc(O)c1 [5-[10(Z)-pentadecenyl]resorcinol]
unlikely | 722 | 26 ± 1.5 | likely | 790 | 75.4 | 69 µM and 67.9 µM | 11 ± 0.7 | unlikely | 1640 | 22 ± 1.8 | CCCC/C=C\CCCCCCCCCC1=C(c2c(O)cc(O)cc2CCCCCCCCC/C=C\CCCC)C(=O)C=C(OC)C1=O [Demethylbelamcandaquinone B]
unlikely | 16 | 4.4 ± 1.3 | unlikely | 16 | 47.9 | 25 µM and 24.7 µM | 16 ± 1.1 | unlikely | 16 | 23 ± 1.5 | CCCC/C=C\CCCCCCCCCc1cc(O)cc2oc3cc(OC)c(O)c(CCCCCCCCC/C=C\CCCC)c3c12 [Fatimahol]

Compound | Likelihood of causing HDI [1] | Plasma concentration [1] [ng/mL] | IC50 [2] [µM] | Likelihood of causing HDI [3] | Plasma concentration [3] [ng/mL] | IC50 [4] [µM] | IC50 [5] | IC50 [6] [µM] | Likelihood of causing HDI [7] | Plasma concentration [7] [ng/mL] | IC50 [8] [µM]
CCCC/C=C\CCCCCCCCCc1cc(O)cc(OC)c1 [Belamcandol B] | unlikely | 310 | 10 ± 1.3 | likely | – | 220 | 18 µM and 45.1 µM | 3.2 ± 0.3 | unlikely | 650 | 23 ± 2.1

Reference: article PMC4126480, “Evaluation of drug interaction potential of Labisia pumila (Kacip Fatimah) and its constituents” (Frontiers in Pharmacology, 2014)
